Experimental data published in PubChem BioAssay (NCI).
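Exposure lasted 48 hours, with cells grown in 96-well plates and compounds tested at five concentrations. The concentration for full growth arrest is given as TGI.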

Tests used:
Test in all cases: NCI anticancer screen, dose series, 48 h
786-0 renal = tested on: 786-0 renal
A498 renal = tested on: A498 renal
A549 NSCLC = tested on: A549 NSCLC
ACHN renal = tested on: ACHN renal
BT-549 breast = tested on: BT-549 breast
CAKI-1 renal = tested on: CAKI-1 renal
CCRF-CEM leukemia = tested on: CCRF-CEM leukemia
COLO 205 colon = tested on: COLO 205 colon
DU-145 prostate = tested on: DU-145 prostate
EKVX NSCLC = tested on: EKVX NSCLC
HCT-116 colon = tested on: HCT-116 colon
HCT-15 colon = tested on: HCT-15 colon
HL-60(TB) leukemia = tested on: HL-60(TB) leukemia
HOP-62 NSCLC = tested on: HOP-62 NSCLC
HOP-92 NSCLC = tested on: HOP-92 NSCLC
HS 578T breast = tested on: HS 578T breast
HT29 colon = tested on: HT29 colon
IGROV1 ovarian = tested on: IGROV1 ovarian
K-562 leukemia = tested on: K-562 leukemia
KM12 colon = tested on: KM12 colon
LOX IMVI melanoma = tested on: LOX IMVI melanoma
M14 melanoma = tested on: M14 melanoma
MALME-3M melanoma = tested on: MALME-3M melanoma
MCF7 breast = tested on: MCF7 breast
MDA-MB-231 breast = tested on: MDA-MB-231 breast
MDA-MB-435 = tested on: MDA-MB-435
MDA-N = tested on: MDA-N
MOLT-4 leukemia = tested on: MOLT-4 leukemia
NCI-H226 lung = tested on: NCI-H226 lung
NCI-H23 lung = tested on: NCI-H23 lung
NCI-H460 lung = tested on: NCI-H460 lung
NCI-H522 lung = tested on: NCI-H522 lung
NCI/ADR-RES ovarian = tested on: NCI/ADR-RES ovarian
OVCAR-3 ovarian = tested on: OVCAR-3 ovarian
OVCAR-4 ovarian = tested on: OVCAR-4 ovarian
OVCAR-5 ovarian = tested on: OVCAR-5 ovarian
OVCAR-8 ovarian = tested on: OVCAR-8 ovarian
PC-3 prostate = tested on: PC-3 prostate
RPMI-8226 leukemia = tested on: RPMI-8226 leukemia
RXF 393 renal = tested on: RXF 393 renal
SF-268 CNS = tested on: SF-268 CNS
SF-295 CNS = tested on: SF-295 CNS
SF-539 CNS = tested on: SF-539 CNS
SK-MEL-2 melanoma = tested on: SK-MEL-2 melanoma
SK-MEL-28 melanoma = tested on: SK-MEL-28 melanoma
SK-MEL-5 melanoma = tested on: SK-MEL-5 melanoma
SK-OV-3 ovarian = tested on: SK-OV-3 ovarian
SN12C renal = tested on: SN12C renal
SNB-19 CNS = tested on: SNB-19 CNS
SNB-75 CNS = tested on: SNB-75 CNS
SR leukemia = tested on: SR leukemia
SW-620 colon = tested on: SW-620 colon
T-47D breast = tested on: T-47D breast
TK-10 renal = tested on: TK-10 renal
U251 CNS = tested on: U251 CNS
UACC-257 melanoma = tested on: UACC-257 melanoma
UACC-62 melanoma = tested on: UACC-62 melanoma
UO-31 renal = tested on: UO-31 renal
HCC-2998 colon = tested on: HCC-2998 colon

Nc1cc2c(nc3c4ccccc4c(N)cc3[n+]2-c2cccc3ccccc23)c2ccccc12 (tested in a mixture with another compound)
TGI (786-0 renal): 4.22 µM
TGI (A498 renal): 16.9 µM
TGI (A549 NSCLC): 13.3 µM
TGI (ACHN renal): 9.21 µM
TGI (BT-549 breast): 16.3 µM
TGI (CAKI-1 renal): 14.6 µM
TGI (CCRF-CEM leukemia): 1.31 µM
TGI (COLO 205 colon): 7.14 µM
TGI (DU-145 prostate): 15.1 µM
TGI (EKVX NSCLC): 18.6 µM
TGI (HCT-116 colon): 10.7 µM
TGI (HCT-15 colon): 25.9 µM
TGI (HL-60(TB) leukemia): 4.53 µM
TGI (HOP-62 NSCLC): 17.2 µM
TGI (HOP-92 NSCLC): 8.45 µM
TGI (HS 578T breast): 12 µM
TGI (HT29 colon): 10.9 µM
TGI (IGROV1 ovarian): 10.7 µM
TGI (K-562 leukemia): 4.17 µM
TGI (KM12 colon): 9.87 µM
TGI (LOX IMVI melanoma): 7.3 µM
TGI (M14 melanoma): 6.61 µM
TGI (MALME-3M melanoma): 4.14 µM
TGI (MCF7 breast): 3.79 µM
TGI (MDA-MB-231 breast): 2.72 µM
TGI (MDA-MB-435): 3 µM
TGI (MDA-N): 5.27 µM
TGI (MOLT-4 leukemia): 4.04 µM
TGI (NCI-H226 lung): 28.7 µM
TGI (NCI-H23 lung): 4.05 µM
TGI (NCI-H460 lung): 1.58 µM
TGI (NCI-H522 lung): 7.77 µM
TGI (NCI/ADR-RES ovarian): 22.2 µM
TGI (OVCAR-3 ovarian): 4.56 µM
TGI (OVCAR-4 ovarian): 15.2 µM
TGI (OVCAR-5 ovarian): 25.2 µM
TGI (OVCAR-8 ovarian): 12.8 µM
TGI (PC-3 prostate): 2.9 µM
TGI (RPMI-8226 leukemia): 0.851 µM
TGI (RXF 393 renal): 9.33 µM
TGI (SF-268 CNS): 18.3 µM
TGI (SF-295 CNS): 12.4 µM
TGI (SF-539 CNS): 23.8 µM
TGI (SK-MEL-2 melanoma): 4.28 µM
TGI (SK-MEL-28 melanoma): 20 µM
TGI (SK-MEL-5 melanoma): 6.17 µM
TGI (SK-OV-3 ovarian): 17.9 µM
TGI (SN12C renal): 13.8 µM
TGI (SNB-19 CNS): 20.2 µM
TGI (SNB-75 CNS): 10.6 µM
TGI (SR leukemia): 3.56 µM
TGI (SW-620 colon): 9.18 µM
TGI (T-47D breast): 16.1 µM
TGI (TK-10 renal): 4.55 µM
TGI (U251 CNS): 2.61 µM
TGI (UACC-257 melanoma): 3.51 µM
TGI (UACC-62 melanoma): 21.7 µM
TGI (UO-31 renal): 15.2 µM

COc1ccc(C=Nc2c(O)ccc3ccccc23)cc1OC
TGI (786-0 renal): > 100 µM
TGI (A498 renal): > 100 µM
TGI (A549 NSCLC): > 100 µM
TGI (ACHN renal): > 100 µM
TGI (BT-549 breast): > 100 µM
TGI (CAKI-1 renal): > 100 µM
TGI (CCRF-CEM leukemia): > 100 µM
TGI (COLO 205 colon): > 100 µM
TGI (DU-145 prostate): > 100 µM
TGI (EKVX NSCLC): > 100 µM
TGI (HCC-2998 colon): > 100 µM
TGI (HCT-116 colon): > 100 µM
TGI (HCT-15 colon): > 100 µM
TGI (HL-60(TB) leukemia): > 100 µM
TGI (HOP-62 NSCLC): > 100 µM
TGI (HOP-92 NSCLC): 59 µM
TGI (HS 578T breast): > 100 µM
TGI (HT29 colon): > 100 µM
TGI (IGROV1 ovarian): > 100 µM
TGI (K-562 leukemia): > 100 µM
TGI (KM12 colon): > 100 µM
TGI (LOX IMVI melanoma): > 100 µM
TGI (M14 melanoma): > 100 µM
TGI (MALME-3M melanoma): 41.2 µM
TGI (MCF7 breast): > 100 µM
TGI (MDA-MB-231 breast): > 100 µM
TGI (MDA-MB-435): 33.4 µM
TGI (MDA-N): 35.1 µM
TGI (NCI-H226 lung): > 100 µM
TGI (NCI-H23 lung): > 100 µM
TGI (NCI-H460 lung): > 100 µM
TGI (NCI-H522 lung): 64.2 µM
TGI (NCI/ADR-RES ovarian): > 100 µM
TGI (OVCAR-3 ovarian): 70.9 µM
TGI (OVCAR-4 ovarian): > 100 µM
TGI (OVCAR-5 ovarian): > 100 µM
TGI (OVCAR-8 ovarian): > 100 µM
TGI (PC-3 prostate): > 100 µM
TGI (RPMI-8226 leukemia): > 100 µM
TGI (RXF 393 renal): > 100 µM
TGI (SF-268 CNS): > 100 µM
TGI (SF-295 CNS): > 100 µM
TGI (SF-539 CNS): > 100 µM
TGI (SK-MEL-2 melanoma): > 100 µM
TGI (SK-MEL-28 melanoma): > 100 µM
TGI (SK-MEL-5 melanoma): > 100 µM
TGI (SK-OV-3 ovarian): > 100 µM
TGI (SN12C renal): > 100 µM
TGI (SNB-19 CNS): > 100 µM
TGI (SNB-75 CNS): > 100 µM
TGI (SR leukemia): > 100 µM
TGI (SW-620 colon): > 100 µM
TGI (T-47D breast): > 100 µM
TGI (TK-10 renal): > 100 µM
TGI (U251 CNS): > 100 µM
TGI (UACC-257 melanoma): > 100 µM
TGI (UACC-62 melanoma): > 100 µM
TGI (UO-31 renal): > 100 µM
